What was measured:
[1] = system: regions of the brain associated with caffeine cravings; assay: fMRI brain blood flow/connectivity analysis; assay type: in vivo, human; conditions: subjects with a caffeine habit, FIG. 1 and 3
Description: Measurement or detection of changes in the brain can be done using functional MRI (fMRI) and functional brain network analyses as known in the art. The following is an exemplary study using known techniques based upon fMRI scanning of human brains.
These examples represent an intervention study (number of subjects=24) with a randomized controlled, double-blind, placebo-controlled crossover design. The study is designed to ensure completion of all possibilities in the order of delivering the test samples, i.e. each subject is administered each of the possible test beverages in different order. An approximately equal number of men and women should be included and ethnic groups and minorities should also be included. For initial baseline testing, subjects undergo 16 hours of caffeine and chocolate withdrawal for a baseline testing and then participate in four separate brain scanning visits over 5-10 weeks. […] As determined from a medical screening session, any subjects with active neurological dysfunction (such as a major Axis I psychopathology, Alzheimer's disease, Parkinson's disease, prior history of stroke, epilepsy, or serious CNS trauma, ADHD, migraines, hypertension, diabetes, peripheral vascular disease, or taking vasoactive medications, such as antihypertensive medications) are excluded from the study. […]

brain blood flow = conditions: difference between caffeine and theobromine, 6 participants; cited from earlier work

Structure (SMILES)	change in blood flow/connectivity by fMRI [1]	brain blood flow difference (brain blood flow) [ml/100 gm tissue/min]
Cn1c(=O)c2c(ncn2C)n(C)c1=O [Caffeine, caffeine]	typical reduction in blood flow/connectivity	
Cn1cnc2c1c(=O)[nH]c(=O)n2C [theobromine]		5.03
